# From ChEMBL document CHEMBL4825738, “EGFR-targeted prodrug activation using bioorthogonal alkene-azide click-and-release chemistry” (Bioorg Med Chem, 2021)
# pIC50: −log10 of the molar value.
# Legend:
# B16-F10-luc2 [1] = assay: Cytotoxicity against mouse B16-F10-Luc2 cells expressing human EGFR measured after 72 hrs by resazurin assay; assay type: cell-based; details: B16-F10-luc2, 72 h
# B16-F10-luc2 [2] = assay: Cytotoxicity against mouse B16-F10-Luc2 cells measured after 72 hrs by resazurin assay; assay type: cell-based; details: B16-F10-luc2, 72 h
# B16-F10-luc2 [3] = assay: Cytotoxicity against mouse B16-F10-Luc2 cells expressing EGFR measured after 72 hrs in absence of cetuximab by resazurin assay; assay type: functional, cell-based; details: B16-F10-luc2, 72 h
# B16-F10-luc2 [4] = assay: Cytotoxicity against mouse B16-F10-Luc2 cells expressing EGFR measured after 72 hrs in presence of 3.3 uM cetuximab by resazurin assay; assay type: functional, cell-based; details: B16-F10-luc2, 72 h
# B16-F10-luc2 [5] = assay: Anti tumour activity in C57BL/6 mouse implanted with B16-F10-Luc2 murine cells assessed as median survival time at 4.5 mg/kg, ip administered for 24 hrs followed by antibody conjugate treatment; assay type: functional
# B16-F10-luc2 [6] = assay: Cytotoxicity against mouse B16-F10-Luc2 cells expressing human EGFR measured after 72 hrs in presence of AB-TCO2 conjugates by resazurin assay; assay type: functional, cell-based; details: B16-F10-luc2, 72 h
# B16-F10-luc2 [7] = assay: Cytotoxicity against mouse B16-F10-Luc2 cells expressing human EGFR measured after 72 hrs in presence of AB-TCO3 conjugates by resazurin assay; assay type: functional, cell-based; details: B16-F10-luc2, 72 h
# B16-F10-luc2 [8] = assay: Cytotoxicity against mouse B16-F10-Luc2 cells expressing human EGFR measured after 72 hrs in presence of AB-TCO4 conjugates by resazurin assay; assay type: functional, cell-based; details: B16-F10-luc2, 72 h
# B16-F10-luc2 [9] = assay: Cytotoxicity against mouse B16-F10-Luc2 cells measured after 72 hrs in presence of AB-TCO2 conjugate by resazurin assay; assay type: functional, cell-based; details: B16-F10-luc2, 72 h
# B16-F10-luc2 [10] = assay: Cytotoxicity against mouse B16-F10-Luc2 cells in the measured after 72 hrs in presence of AB-TCO3 conjugate by resazurin assay; assay type: functional, cell-based; details: B16-F10-luc2, 72 h
# B16-F10-luc2 [11] = assay: Anti tumour activity in C57BL/6 mouse implanted with B16-F10-Luc2 murine cells assessed as median survival time at 5.9 mg/kg, iv administered for 6 hrs followed by antibody conjugate treatment; assay type: functional
compound,measurement,setting,value
COc1cccc2c1C(=O)c1c(O)c3c(c(O)c1C2=O)C[C@@](O)(C(=O)CO)C[C@@H]3O[C@H]1C[C@H](N)[C@H](O)[C@H](C)O1 [DOXORUBICIN],pIC50,B16-F10-luc2 [1],7.40
same,pIC50,B16-F10-luc2 [2],6.96
same,pIC50,B16-F10-luc2 [3],7.40
same,pIC50,B16-F10-luc2 [4],7.05
same,MST,B16-F10-luc2 [5],39 days
COc1cccc2c1C(=O)c1c(O)c3c(c(O)c1C2=O)C[C@@](O)(C(=O)CO)C[C@@H]3O[C@H]1C[C@H](NC(=O)OCc2ccc(N=[N+]=[N-])cc2)[C@H](O)[C@H](C)O1,pIC50,B16-F10-luc2 [1],5.77
same,pIC50,B16-F10-luc2 [6],6.11
same,pIC50,B16-F10-luc2 [7],6.92
same,pIC50,B16-F10-luc2 [8],5.68
same,pIC50,B16-F10-luc2 [2],5.35
same,pIC50,B16-F10-luc2 [9],5.29
same,pIC50,B16-F10-luc2 [10],5.46
same,MST,B16-F10-luc2 [11],26 days
